# Results reported in ChEMBL document CHEMBL3885881, “DrugMatrix”.
# Organism: Rattus norvegicus
# Test: DrugMatrix - Regimen: Daily Repeat
# Type: toxicity, organism-based, Sprague-Dawley
# Design: regimen Daily Repeat, gender Male, age 6-8 weeks
# Conditions: in vivo, po, route oral GAVAGE, vehicle .5 % CMC; for ABSOLUTE BASOPHIL / ABSOLUTE EOSINOPHIL / ABSOLUTE LYMPHOCYTE / ABSOLUTE MONOCYTE / ABSOLUTE SEGMENTED NEUTROPHIL / BASOPHIL / EOSINOPHIL / ERYTHROCYTE COUNT / HEMATOCRIT / HEMOGLOBIN / LEUKOCYTE COUNT / LYMPHOCYTE / MEAN CORPUSCULAR HEMOGLOBIN / MEAN CORPUSCULAR HEMOGLOBIN CONCENTRATION / MEAN CORPUSCULAR VOLUME / MONOCYTE / NEUTROPHIL / NUCLEATED RED BLOOD CELLS / PLATELET COUNT: tissue Blood; for ALANINE AMINOTRANSFERASE / ALBUMIN / ALKALINE PHOSPHATASE / ASPARTATE AMINOTRANSFERASE / BLOOD UREA NITROGEN / CARBON DIOXIDE / CHLORIDE / CHOLESTEROL / CREATINE PHOSPHOKINASE / CREATININE / GLUCOSE / LACTATE DEHYDROGENASE / LIPASE / POTASSIUM / SODIUM / TOTAL BILIRUBIN / TOTAL PROTEIN: tissue Plasma
# [1] = 0 mg/kg, 72 h, dose level Control, time 3 day
# [2] = 0 mg/kg, 120 h, dose level Control, time 5 day
# [3] = 150 mg/kg, 72 h, dose level Low, time 3 day
smiles,measurement,setting,value
C[C@@H]1CC[C@H]2[C@@H](C)C(=O)O[C@@H]3O[C@@]4(C)CC[C@@H]1[C@]32OO4 [ARTEMISININ],ABSOLUTE BASOPHIL,[1],0 CELLS/uL
same,ABSOLUTE EOSINOPHIL,[1],171.33 CELLS/uL
same,ABSOLUTE LYMPHOCYTE,[1],13776.5 CELLS/uL
same,ABSOLUTE MONOCYTE,[1],180.83 CELLS/uL
same,ABSOLUTE SEGMENTED NEUTROPHIL,[1],1121.33 CELLS/uL
same,BASOPHIL,[1],0%
same,EOSINOPHIL,[1],1%
same,ERYTHROCYTE COUNT,[1],5.56 x10E6/uL
same,HEMATOCRIT,[1],34.75%
same,HEMOGLOBIN,[1],13.68 G/DL
same,LEUKOCYTE COUNT,[1],15.25 x10E3/uL
same,LYMPHOCYTE,[1],90.17%
same,MEAN CORPUSCULAR HEMOGLOBIN,[1],24.6 pg
same,MEAN CORPUSCULAR HEMOGLOBIN CONCENTRATION,[1],39.4 G/DL
same,MEAN CORPUSCULAR VOLUME,[1],62.48 fL
same,MONOCYTE,[1],1.17%
same,NEUTROPHIL,[1],7.67%
same,NUCLEATED RED BLOOD CELLS,[1],0 /100WBC
same,PLATELET COUNT,[1],1342 x10E3/uL
same,ALANINE AMINOTRANSFERASE,[1],49.67 u/L
same,ALBUMIN,[1],4.15 G/DL
same,ALKALINE PHOSPHATASE,[1],346.83 u/L
same,ASPARTATE AMINOTRANSFERASE,[1],108.17 u/L
same,BLOOD UREA NITROGEN,[1],17.33 mg/dL
same,CARBON DIOXIDE,[1],25 mmol/L
same,CHLORIDE,[1],100.83 MEQ/L
same,CHOLESTEROL,[1],66.83 mg/dL
same,CREATINE PHOSPHOKINASE,[1],788 u/L
same,CREATININE,[1],0.18 mg/dL
same,GLUCOSE,[1],151.67 mg/dL
same,LACTATE DEHYDROGENASE,[1],982.5 u/L
same,LIPASE,[1],10.33 u/L
same,POTASSIUM,[1],6.37 MEQ/L
same,SODIUM,[1],141.02 MEQ/L
same,TOTAL BILIRUBIN,[1],0.18 mg/dL
same,TOTAL PROTEIN,[1],5.9 G/DL
same,ABSOLUTE BASOPHIL,[2],0 CELLS/uL
same,ABSOLUTE EOSINOPHIL,[2],69 CELLS/uL
same,ABSOLUTE LYMPHOCYTE,[2],13632.83 CELLS/uL
same,ABSOLUTE MONOCYTE,[2],139.83 CELLS/uL
same,ABSOLUTE SEGMENTED NEUTROPHIL,[2],1225 CELLS/uL
same,BASOPHIL,[2],0%
same,EOSINOPHIL,[2],0.33%
same,ERYTHROCYTE COUNT,[2],5.52 x10E6/uL
same,HEMATOCRIT,[2],33.98%
same,HEMOGLOBIN,[2],13.22 G/DL
same,LEUKOCYTE COUNT,[2],15.07 x10E3/uL
same,LYMPHOCYTE,[2],90.83%
same,MEAN CORPUSCULAR HEMOGLOBIN,[2],23.95 pg
same,MEAN CORPUSCULAR HEMOGLOBIN CONCENTRATION,[2],38.9 G/DL
same,MEAN CORPUSCULAR VOLUME,[2],61.53 fL
same,MONOCYTE,[2],0.83%
same,NEUTROPHIL,[2],8%
same,NUCLEATED RED BLOOD CELLS,[2],0 /100WBC
same,PLATELET COUNT,[2],1196 x10E3/uL
same,ALANINE AMINOTRANSFERASE,[2],49.17 u/L
same,ALBUMIN,[2],4.2 G/DL
same,ALKALINE PHOSPHATASE,[2],352.33 u/L
same,ASPARTATE AMINOTRANSFERASE,[2],89.67 u/L
same,BLOOD UREA NITROGEN,[2],18 mg/dL
same,CARBON DIOXIDE,[2],27.67 mmol/L
same,CHLORIDE,[2],101 MEQ/L
same,CHOLESTEROL,[2],72.83 mg/dL
same,CREATINE PHOSPHOKINASE,[2],417.5 u/L
same,CREATININE,[2],0.18 mg/dL
same,GLUCOSE,[2],150.5 mg/dL
same,LACTATE DEHYDROGENASE,[2],517.33 u/L
same,LIPASE,[2],9 u/L
same,POTASSIUM,[2],6.57 MEQ/L
same,SODIUM,[2],143.62 MEQ/L
same,TOTAL BILIRUBIN,[2],0.2 mg/dL
same,TOTAL PROTEIN,[2],6.08 G/DL
same,ABSOLUTE BASOPHIL,[3],0 CELLS/uL
same,ABSOLUTE EOSINOPHIL,[3],206 CELLS/uL
same,ABSOLUTE LYMPHOCYTE,[3],10521.33 CELLS/uL
same,ABSOLUTE MONOCYTE,[3],315 CELLS/uL
same,ABSOLUTE SEGMENTED NEUTROPHIL,[3],957.67 CELLS/uL
same,BASOPHIL,[3],0%
same,EOSINOPHIL,[3],1.67%
same,ERYTHROCYTE COUNT,[3],6.1 x10E6/uL
same,HEMATOCRIT,[3],36.63%
same,HEMOGLOBIN,[3],13.77 G/DL
same,LEUKOCYTE COUNT,[3],12 x10E3/uL
same,LYMPHOCYTE,[3],87.67%
same,MEAN CORPUSCULAR HEMOGLOBIN,[3],22.63 pg
same,MEAN CORPUSCULAR HEMOGLOBIN CONCENTRATION,[3],37.6 G/DL
same,MEAN CORPUSCULAR VOLUME,[3],60.1 fL
same,MONOCYTE,[3],2.67%
same,NEUTROPHIL,[3],8%
same,NUCLEATED RED BLOOD CELLS,[3],0 /100WBC
same,PLATELET COUNT,[3],1362.67 x10E3/uL
same,ALANINE AMINOTRANSFERASE,[3],38 u/L
same,ALBUMIN,[3],4.53 G/DL
same,ALKALINE PHOSPHATASE,[3],347.67 u/L
same,ASPARTATE AMINOTRANSFERASE,[3],86.67 u/L
same,BLOOD UREA NITROGEN,[3],22 mg/dL
same,CARBON DIOXIDE,[3],25.33 mmol/L
same,CHLORIDE,[3],104.33 MEQ/L
same,CHOLESTEROL,[3],87.67 mg/dL
same,CREATINE PHOSPHOKINASE,[3],336.33 u/L
same,CREATININE,[3],0.24 mg/dL
same,GLUCOSE,[3],145.67 mg/dL
same,LACTATE DEHYDROGENASE,[3],459.33 u/L
same,LIPASE,[3],11 u/L
same,POTASSIUM,[3],6.03 MEQ/L
same,SODIUM,[3],146.83 MEQ/L
same,TOTAL BILIRUBIN,[3],0.13 mg/dL
